According to patent publication US20200289474A1, “METHODS OF TREATING PAIN WITH A THIAZOLINE ANTI-HYPERALGESIC” (priority 2019, published 2020):

What was measured:
[1] = solubility in organic/aqueous solvents; type: physicochemical
[2] = tested on: incision-induced hyperalgesia; assay: mouse model of severe incision; type: in vivo; conditions: 10 mg/kg IP daily for 15 days; Days 1, 3, 6, 8, 10, 13, 15 and 21
Excerpt: Two incisional pain models were used to assess Compound 1 effects on hyperalgesia. The first model is referred to as the Brennan model in which, under anesthesia, a 1 cm longitudinal incision to the skin and underlying fascia of a rat hindpaw is made. The second is a variation but is a more invasive procedure in which the skin and muscle are spread apart using forceps which creates a longer-lasting hypersensitivity.
In a mouse model of severe incision (tissue and muscle spread with forceps), animals were at baseline for mechanical thresholds prior to incision and then given a daily dose of Compound 1 (10 mg/kg IP) or vehicle for 15 days.

[3] = tested on: STZ-induced mechanical allodynia; assay: STZ-induced diabetic rats, subsequent study; type: in vivo, rat
Description: Experiments were conducted to determine the effect of Compound 1 in streptozotocin (STZ)-induced diabetic rats. In the first experiment, after obtaining mechanical threshold baselines, STZ (50 mg/kg IV) was administered (Day −7). Two days later, blood glucose levels were measured and animals that were hyperglycemic (>250 mg/dL) continued in the study. On Day 0 the baseline for mechanical thresholds prior to dosing with test articles was established for the rats. Compound 1 (10, 30, and 100 mg/kg PO), gabapentin (100 mg/kg PO) or vehicle was then administered daily for 5 days. On Day 0 mechanical thresholds were obtained at 1, 3, and 6 h post-dose. On Day 1 mechanical thresholds were measured immediately prior to dosing and then 3 h post-dose. The same regimen was followed on Day 3.
In a subsequent study, the same STZ paradigm was followed. However, in addition to the 100 mg/kg Compound 1 group, two additional cohorts received the Compound 1 100 mg/kg dose split into two or three doses per day with 50 mg/kg BID and 33 mg/kg TID. In addition to the gabapentin (100 mg/kg PO) group, a separate cohort received duloxetine (30 mg/kg PO). Additionally, in this study mechanical threshold testing was implemented every day immediately prior to dosing and 2 h post-dose for 7 days.

OATP1B3 = molecular target: T1, OATP1B3 (Homo sapiens, UniProt Q9NPD5); assay: transporter inhibition, HEK293 cells, probe accumulation; type: in vitro ADME
T1 construct: expressed in transfected cells; host or cells: HEK293 cells
T1 sequence (Q9NPD5 1-702): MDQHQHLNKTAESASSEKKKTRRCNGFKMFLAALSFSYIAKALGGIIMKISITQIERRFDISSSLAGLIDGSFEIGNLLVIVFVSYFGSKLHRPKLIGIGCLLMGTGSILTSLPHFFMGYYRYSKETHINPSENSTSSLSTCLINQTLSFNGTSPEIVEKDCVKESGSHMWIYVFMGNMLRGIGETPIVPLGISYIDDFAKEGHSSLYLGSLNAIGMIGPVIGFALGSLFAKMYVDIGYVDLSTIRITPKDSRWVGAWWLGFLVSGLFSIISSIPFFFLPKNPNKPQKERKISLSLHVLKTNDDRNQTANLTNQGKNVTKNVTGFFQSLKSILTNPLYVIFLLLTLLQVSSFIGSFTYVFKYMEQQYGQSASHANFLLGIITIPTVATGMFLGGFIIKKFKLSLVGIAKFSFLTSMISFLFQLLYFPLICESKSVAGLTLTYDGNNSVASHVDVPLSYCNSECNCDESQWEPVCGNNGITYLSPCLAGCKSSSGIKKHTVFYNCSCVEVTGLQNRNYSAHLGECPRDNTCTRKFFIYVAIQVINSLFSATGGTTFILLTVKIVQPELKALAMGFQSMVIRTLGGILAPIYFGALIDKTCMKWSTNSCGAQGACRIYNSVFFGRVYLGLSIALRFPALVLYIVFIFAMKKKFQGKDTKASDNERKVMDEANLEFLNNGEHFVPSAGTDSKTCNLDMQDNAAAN

In the case of `CC1(C)SC(Nc2ccccc2O)=N[C@@H]1C(=O)O.Cl` [Compound 1, (R)-2-(2-hydroxyphenylamino)-5,5-dimethyl-4,5-dihydrothiazole-4-carboxylic acid mono-hydrochloride], the solubility ([1]; in 2-propanol, ethanol, 10% water: isopropyl acetate, 10% water/tetrahydrofuran, and water) is reported as “sparingly soluble”, the solubility ([1]; in methanol and tert-butyl alcohol: water (1:1)) is reported as “freely soluble” and the solubility ([1]; in n-heptane, toluene, acetone, tetrahydrofuran, ethyl acetate, isopropyl acetate, t-butyl methyl ether, t-butyl alcohol) is reported as “less than sparingly soluble”. For the same compound, the “hyperalgesia (mechanical thresholds)” value [2] was “protected from hyperalgesia”, the “difference between dosing regimens” value ([3]; 100 mg/kg QD vs 50 mg/kg BID vs 33 mg/kg TID) was “no clear difference” and the reversal of allodynia ([3]; 100 mg/kg QD, 50 mg/kg BID, 33 mg/kg TID PO, 7 days, statistical significance from Day 1) was “reversed allodynia”. For the same compound, the “inhibition” value (OATP1B3) was “does not inhibit”.
